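The compound was tested at five concentrations on cells cultured in 96-well plates, with a 48-hour exposure period. At the GI50, growth is halved.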 Active and inactive are the calls of the source. No stated cut-off is given here; in the data, active = GI50 up to about 1.1 µM and inactive = higher.
Columns and labels:
Assay in all cases: NCI tumour cell line growth inhibition, 48 h
A498 = test system: A498
CCRF-CEM = test system: CCRF-CEM
HCC 2998 = test system: HCC 2998
IGROV-1 = test system: IGROV-1
KM12 = test system: KM12
M14 = test system: M14
MOLT-4 = test system: MOLT-4
NCI-H460 = test system: NCI-H460
NCI-H522 = test system: NCI-H522
OVCAR-4 = test system: OVCAR-4
SF-539 = test system: SF-539
SN12C = test system: SN12C
SW-620 = test system: SW-620
TK-10 = test system: TK-10
UO-31 = test system: UO-31
LOX IMVI = test system: LOX IMVI
SK-MEL-2 = test system: SK-MEL-2

Measured: GI50

Sc1nnc(COc2ccc(Cl)cc2)o1
inactive: A498 > 100 µM | CCRF-CEM > 100 µM | HCC 2998 > 100 µM | IGROV-1 > 100 µM | KM12 > 100 µM | M14 > 100 µM | MOLT-4 > 100 µM | NCI-H460 > 100 µM | NCI-H522 > 100 µM | OVCAR-4 > 100 µM | SF-539 > 100 µM | SN12C > 100 µM | SW-620 15.5 µM | TK-10 > 100 µM | UO-31 > 100 µM

CC1CCC(C(C)C)C(O[C@@H]2OC(=O)C[C@@H]2Sc2ccccc2)C1 (stereo not given in full)
inactive: A498 28.6 µM | CCRF-CEM 7.01 µM | HCC 2998 24.7 µM | IGROV-1 40.2 µM | KM12 20.3 µM | LOX IMVI 13.1 µM | M14 23.2 µM | MOLT-4 12 µM | NCI-H460 24.5 µM | OVCAR-4 15.9 µM | SF-539 23.5 µM | SK-MEL-2 17.5 µM | SN12C 16.8 µM | SW-620 18.2 µM | TK-10 53.3 µM | UO-31 > 10 µM

O=C(C/C(CCC(=O)N(Cc1ccccc1)Cc1ccccc1)=N/Nc1ccc([N+](=O)[O-])cc1[N+](=O)[O-])c1ccccc1
inactive: CCRF-CEM 35.9 µM | HCC 2998 74.5 µM | IGROV-1 > 100 µM | KM12 77.1 µM | LOX IMVI 25.4 µM | M14 68.9 µM | MOLT-4 22.8 µM | NCI-H460 92.9 µM | NCI-H522 > 100 µM | OVCAR-4 60.8 µM | SF-539 54 µM | SK-MEL-2 > 100 µM | SW-620 45.2 µM | TK-10 > 100 µM | UO-31 35.2 µM

OCC1=CC(NC2CC(CO)C(O)C(O)C2O)C(O)C(O)C1O (stereo not given)
inactive: CCRF-CEM > 100 µM | IGROV-1 > 100 µM | KM12 > 100 µM | LOX IMVI > 100 µM | M14 > 100 µM | MOLT-4 > 100 µM | NCI-H460 > 100 µM | NCI-H522 > 100 µM | SF-539 > 100 µM | SN12C > 100 µM | SW-620 > 100 µM | TK-10 > 100 µM | UO-31 > 100 µM

O=C(C#Cc1cnc(O)nc1O)c1ccccc1Cl
inactive: A498 17.9 µM | CCRF-CEM 3.94 µM | HCC 2998 16.9 µM | IGROV-1 19.5 µM | KM12 29.6 µM | LOX IMVI 13.4 µM | M14 15.5 µM | MOLT-4 10.3 µM | NCI-H460 24.3 µM | OVCAR-4 17.4 µM | SF-539 16.3 µM | SK-MEL-2 16.2 µM | SN12C 14.1 µM | SW-620 14.2 µM | TK-10 21.6 µM | UO-31 21 µM

Source: ChEMBL document CHEMBL1201862, “PubChem BioAssay data set” (2004)
